Measured values published in ChEMBL document CHEMBL5465560, “Selectivity Literature for EUbOPEN Chemogenomic Library” (2024).

Columns and labels:
[1] = target: Microtubule-associated serine/threonine-protein kinase 1 (Homo sapiens) (UniProt Q9Y2H9); assay: Selectivity interaction (KinomeScan (DiscoverX)) EUB0001877a MAST1; details: at 1 µM
[2] = target: CDK10/Cyclin L2 (Homo sapiens) (UniProt Q15131+Q96S94); assay: Selectivity interaction (NanoBRET assay in HEK293T cells) EUB0001631a CDK10; format: cell-based; details: HEK-293T, at 10 µM
[3] = target: CDK3/Cyclin E (Homo sapiens) (UniProt P24864+Q00526); assay: Selectivity interaction (NanoBRET assay in HEK293T cells) EUB0001631a CDK3; format: cell-based; details: HEK-293T, at 10 µM
[4] = target: CDK20/Cyclin H (Homo sapiens) (UniProt P51946+Q8IZL9); assay: Selectivity interaction (NanoBRET assay in HEK293T cells) EUB0001631a CDK20; format: cell-based; details: HEK-293T, at 10 µM
[5] = target: Cyclin-dependent kinase 2/cyclin E1 (Homo sapiens) (UniProt P24864+P24941); assay: Selectivity interaction (NanoBRET assay in HEK293T cells) EUB0001631a CDK2; format: cell-based; details: HEK-293T, at 10 µM
[6] = target: CDK3/cyclin E (Homo sapiens) (UniProt P24864+O96020+Q00526); assay: Selectivity interaction (KinaseProfilerTM (Merck Millipore) ) EUB0001631a CDK3; format: protein-complex assay; details: at 10 µM
[7] = target: Cyclin-dependent kinase 2/cyclin E (Homo sapiens) (UniProt P24864+P24941+O96020); assay: Selectivity interaction (KinaseProfilerTM (Merck Millipore) ) EUB0001631a CDK2; format: protein-complex assay; details: at 10 µM
[8] = target: Mast/stem cell growth factor receptor Kit (Homo sapiens, UniProt P10721); assay: Selectivity interaction (KinaseProfilerTM (Merck Millipore) ) EUB0001631a KIT; details: at 10 µM
[9] = target: Cyclin-dependent kinase 4/cyclin D1 (Homo sapiens) (UniProt P11802+P24385); assay: Selectivity interaction (NanoBRET assay in HEK293T cells) EUB0001631a CDK4; format: cell-based; details: HEK-293T, at 10 µM
[10] = target: Cyclin-dependent kinase 14/Cyclin-Y (Homo sapiens) (UniProt O94921+Q8ND76); assay: Selectivity interaction (NanoBRET assay in HEK293T cells) EUB0001631a CDK14; format: cell-based; details: HEK-293T, at 10 µM
[11] = target: T1, Cyclin-dependent kinase 5/CDK5 activator 1 (Homo sapiens) (UniProt Q00535+Q15078); assay: Selectivity interaction (NanoBRET assay in HEK293T cells) EUB0001631a CDK5; format: cell-based; details: HEK-293T, at 10 µM
[12] = target: CDK11B/Cyclin L2 (Homo sapiens) (UniProt P21127+Q96S94); assay: Selectivity interaction (NanoBRET assay in HEK293T cells) EUB0001631a CDK11B; format: cell-based; details: HEK-293T, at 10 µM
[13] = target: CDK1/Cyclin E (Homo sapiens) (UniProt P06493+P24864+O96020); assay: Selectivity interaction (KinaseProfilerTM (Merck Millipore) ) EUB0001631a CDK1; format: protein-complex assay; details: at 10 µM
[14] = target: Glycogen synthase kinase-3 beta (Homo sapiens, UniProt P49841); assay: Selectivity interaction (KinaseProfilerTM (Merck Millipore) ) EUB0001631a GSK3B; details: at 10 µM
[15] = target: T2, Ephrin type-A receptor 1 (Homo sapiens) (UniProt P21709); assay: Selectivity interaction (KinaseProfilerTM (Merck Millipore) ) EUB0001631a EPHA1; details: at 10 µM
T2 sequence (whole entry): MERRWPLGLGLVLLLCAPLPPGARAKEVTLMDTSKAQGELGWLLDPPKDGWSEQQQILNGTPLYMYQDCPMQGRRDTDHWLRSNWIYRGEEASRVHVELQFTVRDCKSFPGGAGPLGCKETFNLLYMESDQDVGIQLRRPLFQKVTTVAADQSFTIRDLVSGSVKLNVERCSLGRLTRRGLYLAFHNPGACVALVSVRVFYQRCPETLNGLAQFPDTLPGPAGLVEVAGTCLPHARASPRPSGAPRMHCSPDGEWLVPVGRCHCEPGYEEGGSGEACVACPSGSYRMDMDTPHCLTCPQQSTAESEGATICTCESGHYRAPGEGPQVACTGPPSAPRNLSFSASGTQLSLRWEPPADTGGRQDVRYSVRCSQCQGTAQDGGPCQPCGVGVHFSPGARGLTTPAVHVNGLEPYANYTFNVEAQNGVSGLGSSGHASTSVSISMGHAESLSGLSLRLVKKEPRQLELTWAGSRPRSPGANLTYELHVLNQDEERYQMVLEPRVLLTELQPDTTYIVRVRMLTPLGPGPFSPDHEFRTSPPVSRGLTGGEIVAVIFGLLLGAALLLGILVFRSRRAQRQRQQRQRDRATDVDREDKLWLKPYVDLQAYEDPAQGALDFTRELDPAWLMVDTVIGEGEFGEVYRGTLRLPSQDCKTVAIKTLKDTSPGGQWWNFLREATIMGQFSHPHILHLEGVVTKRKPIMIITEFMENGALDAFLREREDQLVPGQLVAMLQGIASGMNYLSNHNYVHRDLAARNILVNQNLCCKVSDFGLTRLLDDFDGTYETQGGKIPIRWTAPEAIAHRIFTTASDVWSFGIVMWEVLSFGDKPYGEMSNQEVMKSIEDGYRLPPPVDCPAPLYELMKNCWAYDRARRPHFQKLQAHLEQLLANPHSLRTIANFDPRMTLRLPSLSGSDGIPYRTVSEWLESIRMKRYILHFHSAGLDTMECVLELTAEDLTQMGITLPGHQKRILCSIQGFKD

[16] = target: CDK15/Cyclin Y (Homo sapiens) (UniProt Q96Q40+Q8ND76); assay: Selectivity interaction (NanoBRET assay in HEK293T cells) EUB0001631a CDK15; format: cell-based; details: HEK-293T, at 10 µM
[17] = target: Cyclin-C/Cyclin-dependent kinase 19 (Homo sapiens) (UniProt Q9BWU1+P24863); assay: Selectivity interaction (NanoBRET assay in HEK293T cells) EUB0001631a CDK19; format: cell-based; details: HEK-293T, at 10 µM
[18] = target: T1, Cyclin-dependent kinase 5/CDK5 activator 1 (Homo sapiens); assay: Selectivity interaction (KinaseProfilerTM (Merck Millipore) ) EUB0001631a CDK5; format: protein-complex assay; details: at 10 µM
[19] = target: CDK8/Cyclin C (Homo sapiens) (UniProt P49336+P24863); assay: Selectivity interaction (NanoBRET assay in HEK293T cells) EUB0001631a CDK8; format: cell-based; details: HEK-293T, at 10 µM
[20] = target: CDK17/Cyclin-Y (Homo sapiens) (UniProt Q00537+Q8ND76); assay: Selectivity interaction (NanoBRET assay in HEK293T cells) EUB0001631a CDK17; format: cell-based; details: HEK-293T, at 10 µM
[21] = target: CDK6/cyclin D1 (Homo sapiens) (UniProt P24385+Q00534); assay: Selectivity interaction (NanoBRET assay in HEK293T cells) EUB0001631a CDK6; format: cell-based; details: HEK-293T, at 10 µM
[22] = target: Vascular endothelial growth factor receptor 3 (Homo sapiens, UniProt P35916); assay: Selectivity interaction (KinaseProfilerTM (Merck Millipore) ) EUB0001631a FLT4; details: at 10 µM
[23] = target: Cyclin-dependent kinase 13/Cyclin-K (Homo sapiens) (UniProt Q14004+O75909); assay: Selectivity interaction (NanoBRET assay in HEK293T cells) EUB0001631a CDK13; format: cell-based; details: HEK-293T, at 10 µM
[24] = target: Cyclin-Y/Cyclin-dependent kinase 16 (Homo sapiens) (UniProt Q00536+Q8ND76); assay: Selectivity interaction (NanoBRET assay in HEK293T cells) EUB0001631a CDK16; format: cell-based; details: HEK-293T, at 10 µM
[25] = target: High affinity nerve growth factor receptor (Homo sapiens, UniProt P04629); assay: Selectivity interaction (KinaseProfilerTM (Merck Millipore) ) EUB0001631a NTRK1; details: at 10 µM
[26] = target: Glycogen synthase kinase-3 alpha (Homo sapiens, UniProt P49840); assay: Selectivity interaction (KinaseProfilerTM (Merck Millipore) ) EUB0001631a GSK3A; details: at 10 µM
[27] = target: CDK1/Cyclin E (Homo sapiens) (UniProt P06493+P24864); assay: Selectivity interaction (NanoBRET assay in HEK293T cells) EUB0001631a CDK1; format: cell-based; details: HEK-293T, at 10 µM
[28] = target: CDK18/Cyclin Y (Homo sapiens) (UniProt Q07002+Q8ND76); assay: Selectivity interaction (NanoBRET assay in HEK293T cells) EUB0001631a CDK18; format: cell-based; details: HEK-293T, at 10 µM
[29] = target: CDK9/Cyclin K (Homo sapiens) (UniProt P50750+O75909); assay: Selectivity interaction (NanoBRET assay in HEK293T cells) EUB0001631a CDK9; format: cell-based; details: HEK-293T, at 10 µM
[30] = target: Tyrosine-protein kinase Fyn (Homo sapiens) (UniProt P06241); assay: Selectivity interaction (KinaseProfilerTM (Merck Millipore) ) EUB0001631a FYN; details: at 10 µM
[31] = target: CDK12/Cyclin K (Homo sapiens) (UniProt O75909+Q9NYV4); assay: Selectivity interaction (NanoBRET assay in HEK293T cells) EUB0001631a CDK12; format: cell-based; details: HEK-293T, at 10 µM
[32] = target: Cyclin-dependent kinase 7 (Homo sapiens, UniProt P50613); assay: Selectivity interaction (NanoBRET assay in HEK293T cells) EUB0001631a CDK7; format: cell-based; details: HEK-293T, at 10 µM
[33] = target: CDK11A/Cyclin L2 (Homo sapiens) (UniProt Q9UQ88+Q96S94); assay: Selectivity interaction (NanoBRET assay in HEK293T cells) EUB0001631a CDK11A; format: cell-based; details: HEK-293T, at 10 µM

T1 sequence (Q00535 whole entry): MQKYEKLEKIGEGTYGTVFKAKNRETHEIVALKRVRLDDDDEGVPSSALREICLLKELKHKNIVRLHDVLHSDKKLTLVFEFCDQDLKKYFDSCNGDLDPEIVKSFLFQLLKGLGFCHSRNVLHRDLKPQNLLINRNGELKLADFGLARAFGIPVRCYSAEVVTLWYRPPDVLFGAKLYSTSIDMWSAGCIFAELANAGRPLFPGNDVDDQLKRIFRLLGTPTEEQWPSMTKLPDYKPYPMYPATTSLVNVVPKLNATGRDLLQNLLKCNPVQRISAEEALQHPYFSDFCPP
T1 sequence (Q15078 99-307 partner limits assumed): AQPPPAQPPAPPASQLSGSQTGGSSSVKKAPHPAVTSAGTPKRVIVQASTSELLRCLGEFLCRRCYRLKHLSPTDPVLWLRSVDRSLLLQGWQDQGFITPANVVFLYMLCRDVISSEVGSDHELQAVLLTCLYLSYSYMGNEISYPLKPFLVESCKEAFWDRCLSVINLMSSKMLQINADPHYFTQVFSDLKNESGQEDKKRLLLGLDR
Sequence of CDK3/Cyclin E (Homo sapiens) (P24864 whole entry, looked up): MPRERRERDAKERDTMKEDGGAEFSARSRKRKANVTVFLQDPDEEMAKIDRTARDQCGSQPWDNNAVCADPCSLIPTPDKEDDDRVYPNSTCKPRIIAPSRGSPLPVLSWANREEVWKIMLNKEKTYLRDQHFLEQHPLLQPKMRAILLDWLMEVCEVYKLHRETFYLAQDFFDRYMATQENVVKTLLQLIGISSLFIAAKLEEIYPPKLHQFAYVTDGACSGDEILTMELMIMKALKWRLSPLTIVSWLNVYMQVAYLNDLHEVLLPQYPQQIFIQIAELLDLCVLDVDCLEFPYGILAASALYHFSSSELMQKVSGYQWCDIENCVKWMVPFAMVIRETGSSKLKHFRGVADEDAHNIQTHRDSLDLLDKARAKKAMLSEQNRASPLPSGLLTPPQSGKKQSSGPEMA
Sequence of CDK3/Cyclin E (Homo sapiens) (Q00526 whole entry, looked up): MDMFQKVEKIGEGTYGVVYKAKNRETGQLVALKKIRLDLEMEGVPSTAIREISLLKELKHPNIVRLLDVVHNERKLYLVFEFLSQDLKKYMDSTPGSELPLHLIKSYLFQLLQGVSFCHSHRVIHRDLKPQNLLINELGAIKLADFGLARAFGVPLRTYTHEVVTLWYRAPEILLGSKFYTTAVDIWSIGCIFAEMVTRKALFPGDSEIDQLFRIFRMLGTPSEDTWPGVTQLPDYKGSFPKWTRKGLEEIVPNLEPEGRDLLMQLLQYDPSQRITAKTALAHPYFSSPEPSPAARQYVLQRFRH
Sequence of CDK1/Cyclin E (Homo sapiens) (UniProt P06493+P24864+O96020) (O96020 whole entry, looked up): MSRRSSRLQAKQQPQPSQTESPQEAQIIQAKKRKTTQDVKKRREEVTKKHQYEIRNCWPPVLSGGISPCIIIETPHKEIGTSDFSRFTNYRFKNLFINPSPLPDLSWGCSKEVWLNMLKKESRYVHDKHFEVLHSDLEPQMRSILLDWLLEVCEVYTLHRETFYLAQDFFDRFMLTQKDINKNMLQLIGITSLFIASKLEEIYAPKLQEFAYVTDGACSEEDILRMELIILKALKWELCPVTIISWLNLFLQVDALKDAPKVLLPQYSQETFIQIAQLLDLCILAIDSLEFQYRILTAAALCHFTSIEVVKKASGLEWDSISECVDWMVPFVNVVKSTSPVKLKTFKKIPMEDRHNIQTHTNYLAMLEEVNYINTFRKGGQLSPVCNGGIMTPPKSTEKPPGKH
Sequence of CDK1/Cyclin E (Homo sapiens) (UniProt P06493+P24864+O96020) (P06493 whole entry, looked up): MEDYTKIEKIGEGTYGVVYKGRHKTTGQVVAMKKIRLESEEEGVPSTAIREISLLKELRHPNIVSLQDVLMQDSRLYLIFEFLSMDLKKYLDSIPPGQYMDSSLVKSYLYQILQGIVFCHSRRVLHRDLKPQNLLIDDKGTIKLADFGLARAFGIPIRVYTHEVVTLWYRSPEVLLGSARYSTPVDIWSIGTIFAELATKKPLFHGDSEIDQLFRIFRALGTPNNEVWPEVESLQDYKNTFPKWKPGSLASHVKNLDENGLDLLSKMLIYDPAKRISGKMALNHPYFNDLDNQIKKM
Sequence of CDK1/Cyclin E (Homo sapiens) (UniProt P06493+P24864+O96020) (P24864 whole entry, looked up): as the sequence (P24864 whole entry, looked up) above
Sequence of CDK3/cyclin E (Homo sapiens) (O96020 whole entry, looked up): as the sequence (O96020 whole entry, looked up) above
Sequence of CDK3/cyclin E (Homo sapiens) (P24864 whole entry, looked up): as the sequence (P24864 whole entry, looked up) above
Sequence of CDK3/cyclin E (Homo sapiens) (Q00526 whole entry, looked up): as the sequence (Q00526 whole entry, looked up) above
Sequence of CDK17/Cyclin-Y (Homo sapiens) (Q00537 whole entry): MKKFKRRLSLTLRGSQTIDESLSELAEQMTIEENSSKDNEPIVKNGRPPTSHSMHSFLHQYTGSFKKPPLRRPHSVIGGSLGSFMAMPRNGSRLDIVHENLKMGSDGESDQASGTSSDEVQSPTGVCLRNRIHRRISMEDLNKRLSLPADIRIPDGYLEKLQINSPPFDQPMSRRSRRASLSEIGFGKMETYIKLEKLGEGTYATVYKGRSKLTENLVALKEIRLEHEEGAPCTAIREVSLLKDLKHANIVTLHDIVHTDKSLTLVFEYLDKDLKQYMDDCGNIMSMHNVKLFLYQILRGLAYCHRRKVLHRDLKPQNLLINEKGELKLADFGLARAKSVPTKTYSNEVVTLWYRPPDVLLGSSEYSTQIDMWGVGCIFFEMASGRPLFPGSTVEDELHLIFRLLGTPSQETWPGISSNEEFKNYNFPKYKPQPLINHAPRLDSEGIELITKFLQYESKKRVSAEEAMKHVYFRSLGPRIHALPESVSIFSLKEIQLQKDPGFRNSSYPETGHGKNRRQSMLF
Sequence of CDK17/Cyclin-Y (Homo sapiens) (Q8ND76 2-341 partner limits assumed): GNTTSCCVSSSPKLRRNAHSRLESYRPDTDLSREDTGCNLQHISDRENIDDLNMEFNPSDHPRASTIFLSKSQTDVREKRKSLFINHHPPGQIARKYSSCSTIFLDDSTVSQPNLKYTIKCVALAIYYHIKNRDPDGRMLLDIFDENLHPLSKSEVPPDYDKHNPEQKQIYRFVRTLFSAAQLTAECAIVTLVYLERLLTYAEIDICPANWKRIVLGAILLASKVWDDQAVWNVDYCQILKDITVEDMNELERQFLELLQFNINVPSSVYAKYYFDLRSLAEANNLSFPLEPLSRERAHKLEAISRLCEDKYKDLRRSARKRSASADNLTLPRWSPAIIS
Sequence of CDK1/Cyclin E (Homo sapiens) (UniProt P06493+P24864) (P06493 whole entry, looked up): as the sequence (P06493 whole entry, looked up) above
Sequence of CDK1/Cyclin E (Homo sapiens) (UniProt P06493+P24864) (P24864 whole entry, looked up): as the sequence (P24864 whole entry, looked up) above
Sequence of Vascular endothelial growth factor receptor 3 (P35916 whole entry): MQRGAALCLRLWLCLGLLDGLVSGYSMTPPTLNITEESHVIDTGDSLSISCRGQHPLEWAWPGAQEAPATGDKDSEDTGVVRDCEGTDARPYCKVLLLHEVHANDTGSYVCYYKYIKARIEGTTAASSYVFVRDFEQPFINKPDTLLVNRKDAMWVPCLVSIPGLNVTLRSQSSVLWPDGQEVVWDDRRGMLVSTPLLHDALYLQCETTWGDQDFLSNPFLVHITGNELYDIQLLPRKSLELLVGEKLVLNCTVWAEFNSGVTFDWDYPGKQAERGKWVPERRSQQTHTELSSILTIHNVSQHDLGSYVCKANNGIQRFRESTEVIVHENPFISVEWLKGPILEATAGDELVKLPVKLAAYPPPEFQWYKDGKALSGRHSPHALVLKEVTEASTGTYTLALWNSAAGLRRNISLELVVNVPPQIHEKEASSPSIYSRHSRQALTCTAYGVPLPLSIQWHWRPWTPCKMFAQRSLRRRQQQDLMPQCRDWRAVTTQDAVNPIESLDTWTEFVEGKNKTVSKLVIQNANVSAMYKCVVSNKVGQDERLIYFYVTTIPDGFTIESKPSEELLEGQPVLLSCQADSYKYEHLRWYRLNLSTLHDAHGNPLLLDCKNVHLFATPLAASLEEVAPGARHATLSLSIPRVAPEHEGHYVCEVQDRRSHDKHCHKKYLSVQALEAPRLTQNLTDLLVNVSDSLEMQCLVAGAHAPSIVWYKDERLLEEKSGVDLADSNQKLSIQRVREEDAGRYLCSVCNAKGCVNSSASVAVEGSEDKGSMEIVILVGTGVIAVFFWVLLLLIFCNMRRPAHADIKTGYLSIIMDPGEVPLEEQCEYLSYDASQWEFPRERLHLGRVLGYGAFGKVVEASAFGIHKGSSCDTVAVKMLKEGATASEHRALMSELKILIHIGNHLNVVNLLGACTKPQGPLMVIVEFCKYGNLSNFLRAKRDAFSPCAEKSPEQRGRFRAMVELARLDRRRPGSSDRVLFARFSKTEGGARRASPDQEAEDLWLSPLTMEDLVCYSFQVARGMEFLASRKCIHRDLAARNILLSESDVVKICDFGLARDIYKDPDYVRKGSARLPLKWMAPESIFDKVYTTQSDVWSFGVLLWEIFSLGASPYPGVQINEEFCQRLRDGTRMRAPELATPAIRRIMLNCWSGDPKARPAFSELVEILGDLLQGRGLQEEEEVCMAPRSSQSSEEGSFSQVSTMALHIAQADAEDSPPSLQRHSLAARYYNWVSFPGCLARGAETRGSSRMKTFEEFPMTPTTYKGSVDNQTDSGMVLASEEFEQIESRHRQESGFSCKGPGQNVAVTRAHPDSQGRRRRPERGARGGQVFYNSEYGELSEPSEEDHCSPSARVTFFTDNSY

## Nc1ncc2c(n1)-c1c([nH]c3ccc(C4CC4)cc13)CCCC2
[1]
  % of control: 32%

## COc1cc(F)ccc1-c1ncnc(Nc2cccc(C[S@](C)(=N)=O)c2)n1
[2]
  % of inhibition: 6.3%
[3]
  % of inhibition: 48.4%
[4]
  % of inhibition: 1.3%
[5]
  % of inhibition: 41.7%
[6]
  % of control: 10%
[7]
  % of control: 13%
[8]
  % of control: 6%
[9]
  % of inhibition: 31.5%
[10]
  % of inhibition: 3%
[11]
  % of inhibition: 26.1%
[12]
  % of inhibition: 7.4%
[13]
  % of control: 14%
[14]
  % of control: 3%
[15]
  % of control: 20%
[16]
  % of inhibition: 4.5%
[17]
  % of inhibition: 11.1%
[18]
  % of control: 20%
[19]
  % of inhibition: 3%
[20]
  % of inhibition: 31%
[21]
  % of inhibition: 64.1%
[22]
  % of control: 30%
[23]
  % of inhibition: 4.8%
[24]
  % of inhibition: 38.6%
[25]
  % of control: 20%
[26]
  % of control: 4%
[27]
  % of inhibition: 16.6%
[28]
  % of inhibition: 19.9%
[29]
  % of inhibition: 97.9%
[30]
  % of control: 24%
[31]
  % of inhibition: 8.2%
[32]
  % of inhibition: 16.8%
[33]
  % of inhibition: 10%
